Data as given in patent US12661355B2, “Compounds and methods for inducing UCP1 expression” (The Regents of the University of California, priority 2020, dated 2026).

Tests used:
PKA = PKA activity ELISA, brown adipocytes treated overnight; assay type: cell-based, mouse; details: immortalized brown adipocytes, 10 μM
Experimental: PKA kinase activity was measured with an ELISA that utilized a synthetic peptide as substrate for PKA and a polyclonal antibody that recognizes the phosphorylated form of the substrate (ab139435, Abcam). PKA activity was measured in lysates from cultured brown adipocytes, mouse BAT, or liver. Cells and tissues were lysed in 20 mM MOPS, 5 mM EGTA, 2 mM EDTA, and 0.1% Triton X-100 supplemented with protease and phosphatase inhibitor as described above. Protein concentration was determined by Bradford assay and 10 μg of cells, 0.25 μg of BAT extract, or 0.5 μg of liver extract were assessed for PKA activation according to the manufacturer's instruction, with minor changes. Briefly, vehicle or Z160 was incubated with brown adipocyte cells overnight or with protein lysates for 30 min, followed by one wash before the primary antibody, 60 min incubation with the primary antibody, 30 min incubation with the secondary antibody, and by 10 min washing. Absorbance was measured after the substrate was added for 20-60 min, depending the intensity of the signal.

AKAP1 = target: T1, AKAP1 (Mus musculus, UniProt O08715); experiment: Drug Affinity Responsive Target Stability (DARTS) in BAT or brown adipocyte extracts, AKAP1; assay type: binding; details: 1 h; for effect on AKAP1 (pronase susceptibility): mouse brown adipocyte extracts, 20 μM (CL316,243 20 nM)
T1 construct: from tissue; host or cells: mouse brown adipose tissue (BAT) lysate; also mouse brown adipocyte extracts
T1 sequence (O08715 30-857): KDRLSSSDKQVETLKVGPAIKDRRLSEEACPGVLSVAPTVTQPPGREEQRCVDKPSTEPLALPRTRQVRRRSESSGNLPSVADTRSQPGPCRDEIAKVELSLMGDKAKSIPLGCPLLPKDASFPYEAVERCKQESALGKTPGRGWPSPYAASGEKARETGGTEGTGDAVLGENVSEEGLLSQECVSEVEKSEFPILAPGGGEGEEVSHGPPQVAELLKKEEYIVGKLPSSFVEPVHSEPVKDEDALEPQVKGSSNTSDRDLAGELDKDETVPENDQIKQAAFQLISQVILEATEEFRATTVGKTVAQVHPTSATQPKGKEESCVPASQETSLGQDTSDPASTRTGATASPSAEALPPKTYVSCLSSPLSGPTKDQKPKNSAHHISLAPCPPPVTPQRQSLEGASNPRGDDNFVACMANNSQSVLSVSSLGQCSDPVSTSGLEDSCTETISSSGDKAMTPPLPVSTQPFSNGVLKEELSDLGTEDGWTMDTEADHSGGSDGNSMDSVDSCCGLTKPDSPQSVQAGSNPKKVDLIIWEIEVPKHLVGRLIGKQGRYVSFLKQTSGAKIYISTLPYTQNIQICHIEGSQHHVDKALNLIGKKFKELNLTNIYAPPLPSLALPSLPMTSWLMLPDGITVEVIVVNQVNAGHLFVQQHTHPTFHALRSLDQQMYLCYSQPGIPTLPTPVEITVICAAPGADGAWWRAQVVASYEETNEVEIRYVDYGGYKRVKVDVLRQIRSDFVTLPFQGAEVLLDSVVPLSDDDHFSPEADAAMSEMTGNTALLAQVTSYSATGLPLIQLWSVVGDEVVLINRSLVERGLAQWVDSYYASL
Experimental: […] assays were performed according to known methods. Briefly, BAT or cells within a 10 cm dish were lysed with 600 μl M-PER buffer containing protease and phosphatase inhibitors. Debris was pelleted by centrifugation at 18,000 g for 10 min at 4° C., and the lysates were harvested and supplemented with TNC buffer (50 mM Tris-HCl, 50 mM NaCl, 10 mM CaCl2). The lysates were split into two tubes and treated with either vehicle or 20 μM Z160 for 1 h at room temperature. For experiment with BAT, 100 μg of lysate was incubated with different Z160 concentrations. Different concentrations of pronase (from 1:100 to 1:10,000 dilution from a 1.25 mg/ml pronase stock) were incubated with the samples for 30 min at room temperature and the reaction was stopped with SDS loading buffer followed immediately by heating at 70° C. for 10 min. Protein lysates were separated by SDS-PAGE and transferred to a nitrocellulose membrane. After blocking in 5% milk, 0.1% Tween-20 in Tris-buffered saline (TBS), primary antibody was incubated overnight at 4° C. in 5% bovine serum albumin and 0.1% Tween-20 in TBS. Primary antibodies against AKAP1 (5203, Cell Signaling), AKAP13 (39715, One World Lab), GAPDH (GTX100118, Genetex), OPA1 (39557, One World Lab), PKA C-α (4782, Cell Signaling), PKA RII-β (ab75993, Abcam), were used at 1:2000. A goat anti-rabbit secondary antibody (sc-2030, Santa Cruz Biotechnology, Inc) was used at a 1:10,000 dilution for 1 h at room temperature in 5% milk and 0.1% Tween-20 in TBS.
The PKA tetramer consists of two catalytic and two regulatory subunits. In the mouse, these are catalytic subunits C-α and C-β, and regulatory subunits RI and RII, each with α and β isoforms (RI-α, RI-β, RII-α, RII-β). PKA is also bound to a family of anchoring proteins, A-kinase anchoring proteins (AKAPs), which allow the compartmentalization of cAMP signaling. To investigate whether Z160 binds PKA complex proteins, two techniques were applied both of which rely on ligand-induced alterations in protein stability: Cellular Thermal Shift Assay (CETSA) and Drug Affinity Responsive Target Stability (DARTS). CETSA is based on the principle that ligand binding will change the temperature at which a protein starts to unfold and aggregate, while DARTS relies on the protection of a protein from proteolysis upon specific binding to a small molecule.
To provide further evidence for an interaction between Z160 and AKAP1, DARTS assays were employed. Lysates from brown fat were treated with different Z160 concentrations for 1 h followed by pronase digestion and immunoblotting. […] The effect of Z160 on AKAP1 was confirmed using mouse brown adipocyte extracts (FIG. 15A).

COc1ccc(NC(=O)CSc2nc3ccccc3c(=O)[nH]2)c(OC)c1 [Z160]
PKA activity (PKA): significantly increased | pronase susceptibility of AKAP1 (AKAP1; brown fat lysates, pronase 1:4000): altered pronase susceptibility | effect on AKAP1 (pronase susceptibility) (AKAP1): confirmed

O=C(CSc1nc2ccccc2c(=O)[nH]1)Nc1ccc2c(c1)OCCO2 [AST070, N-(2,3-dihydro-1,4-benzodioxin-6-yl)-2-[(4-oxo-3,4-dihydroquinazolin-2-yl)sulfanyl]acetamide]
PKA activity (PKA): significantly increased | effect on AKAP1 (pronase susceptibility) (AKAP1): effect of AST070 or Z160 on AKAP1
